Results published in patent publication US9089572B2, “Inhibitors of p97” (California Institute of Technology, priority 2008, dated 2015).
Where a SMILES comes first, the peptide text is derived from it. The star is where a group is joined. Cbz = O=C(OCc1ccccc1)*

Legend:
MDAMB-231 = experiment: MTT cell growth assay, MDAMB-231; type: cell-based; settings: Homo sapiens, MDA-MB-231, 48 or 72 h, read-out: Cell line inhibition of growth GI50 MDAMB-231
Method: (§1) To probe further the effect of compound 2 and related compounds 1, 3, 5, 6 and 7, various concentrations of these compounds were added to 13 different cell lines and incubated for 48 or 72 h. An MTT assay was then performed to evaluate cell growth and survival.

T532C-Cdc48 = T532C-Cdc48 (Saccharomyces cerevisiae, UniProt P25694, T532C); experiment: In vitro ATP hydrolysis (malachite green ATPase assay), T532C-Cdc48; type: biochemical, yeast
Sequence of T532C-Cdc48 (P25694 whole entry T532C): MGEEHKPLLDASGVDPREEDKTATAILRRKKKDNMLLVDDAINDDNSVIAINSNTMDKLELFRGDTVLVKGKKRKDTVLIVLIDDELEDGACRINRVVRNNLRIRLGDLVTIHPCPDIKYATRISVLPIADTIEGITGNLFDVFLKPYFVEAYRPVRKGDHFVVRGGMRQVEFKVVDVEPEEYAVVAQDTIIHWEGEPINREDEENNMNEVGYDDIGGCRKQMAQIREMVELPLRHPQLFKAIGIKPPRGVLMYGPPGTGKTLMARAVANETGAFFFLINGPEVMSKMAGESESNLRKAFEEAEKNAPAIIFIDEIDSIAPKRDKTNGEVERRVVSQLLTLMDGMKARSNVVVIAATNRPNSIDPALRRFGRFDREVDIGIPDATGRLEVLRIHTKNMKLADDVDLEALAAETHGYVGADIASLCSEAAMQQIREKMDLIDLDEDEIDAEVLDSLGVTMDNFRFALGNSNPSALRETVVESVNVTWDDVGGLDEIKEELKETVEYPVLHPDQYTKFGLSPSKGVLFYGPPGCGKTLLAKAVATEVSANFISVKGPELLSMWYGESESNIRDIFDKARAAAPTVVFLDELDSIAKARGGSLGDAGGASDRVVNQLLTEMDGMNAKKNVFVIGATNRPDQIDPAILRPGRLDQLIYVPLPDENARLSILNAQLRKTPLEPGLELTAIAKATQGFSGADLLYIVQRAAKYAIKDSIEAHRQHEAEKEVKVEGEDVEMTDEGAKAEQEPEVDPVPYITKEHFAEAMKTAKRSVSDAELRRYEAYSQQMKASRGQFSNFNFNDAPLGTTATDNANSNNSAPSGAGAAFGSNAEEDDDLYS
Method: (§2) Compounds were tested for their ability to inhibit the ATPase activity of purified wild type murine p97 and T532C-Cdc48, a mutant of yeast Cdc48 in which the residue analogous to cysteine 522, threonine 532, was converted to cysteine.
To determine whether cysteine 522 is necessary for inhibition of p97 by compound 2, a mutant of p97 was constructed in which cysteine 522 was converted to either alanine (C522A-mp97) or threonine (C522T-mp97). The IC50 values of compound 2 were measured the against various enzymes during a 20-minute preincubation (see Table 2). Mutation of cysteine 522 in p97 to either alanine or threonine decreased sensitivity to compound 2 by greater than 100-fold. On the other hand, yeast Cdc48, which normally is quite resistant to compound 2, became nearly 30-fold more sensitive to the compound upon introduction of a cysteine in place of threonine 532.

DU145 = experiment: MTT cell growth assay, DU145; type: cell-based; settings: Homo sapiens, DU-145, 48 or 72 h, read-out: Cell line inhibition of growth GI50 DU145
Method: as §1

HeLa = experiment: MTT cell growth assay, HeLa; type: cell-based; settings: Homo sapiens, 48 or 72 h, read-out: Cell line inhibition of growth GI50 HeLa
Method: as §1

RL = experiment: MTT cell growth assay, RL; type: cell-based; settings: Homo sapiens, 48 or 72 h, read-out: Cell line inhibition of growth GI50 RL
Method: as §1

Molt4 = experiment: MTT cell growth assay, Molt4; type: cell-based; settings: Homo sapiens, MOLT-4, 48 or 72 h, read-out: Cell line inhibition of growth GI50 Molt4
Method: as §1

LNCaP = experiment: MTT cell growth assay, LNCaP; type: cell-based; settings: Homo sapiens, 48 or 72 h, read-out: Cell line inhibition of growth GI50 LNCaP
Method: as §1

PC3 = experiment: MTT cell growth assay, PC3; type: cell-based; settings: Homo sapiens, PC-3, 48 or 72 h, read-out: Cell line inhibition of growth GI50 PC3
Method: as §1

CCRF-CEM = experiment: MTT cell growth assay, CCRF-CEM; type: cell-based; settings: Homo sapiens, 48 or 72 h, read-out: Cell line inhibition of growth GI50 CCRF-CEM
Method: as §1

RPMI8226 = experiment: MTT cell growth assay, RPMI8226; type: cell-based; settings: Homo sapiens, RPMI-8226, 48 or 72 h, read-out: Cell line inhibition of growth GI50 RPMI8226
Method: as §1

wild type murine p97 = wild type murine p97 (Mus musculus, UniProt Q01853); experiment: In vitro ATP hydrolysis (malachite green ATPase assay), wild type murine p97; type: biochemical; settings: 200 nM p97, 20 min preincubation at 23° C., malachite green; read-out: In vitro ATP Hydrolysis Activity IC50 WT-mP97
Sequence of wild type murine p97 (Q01853 whole entry): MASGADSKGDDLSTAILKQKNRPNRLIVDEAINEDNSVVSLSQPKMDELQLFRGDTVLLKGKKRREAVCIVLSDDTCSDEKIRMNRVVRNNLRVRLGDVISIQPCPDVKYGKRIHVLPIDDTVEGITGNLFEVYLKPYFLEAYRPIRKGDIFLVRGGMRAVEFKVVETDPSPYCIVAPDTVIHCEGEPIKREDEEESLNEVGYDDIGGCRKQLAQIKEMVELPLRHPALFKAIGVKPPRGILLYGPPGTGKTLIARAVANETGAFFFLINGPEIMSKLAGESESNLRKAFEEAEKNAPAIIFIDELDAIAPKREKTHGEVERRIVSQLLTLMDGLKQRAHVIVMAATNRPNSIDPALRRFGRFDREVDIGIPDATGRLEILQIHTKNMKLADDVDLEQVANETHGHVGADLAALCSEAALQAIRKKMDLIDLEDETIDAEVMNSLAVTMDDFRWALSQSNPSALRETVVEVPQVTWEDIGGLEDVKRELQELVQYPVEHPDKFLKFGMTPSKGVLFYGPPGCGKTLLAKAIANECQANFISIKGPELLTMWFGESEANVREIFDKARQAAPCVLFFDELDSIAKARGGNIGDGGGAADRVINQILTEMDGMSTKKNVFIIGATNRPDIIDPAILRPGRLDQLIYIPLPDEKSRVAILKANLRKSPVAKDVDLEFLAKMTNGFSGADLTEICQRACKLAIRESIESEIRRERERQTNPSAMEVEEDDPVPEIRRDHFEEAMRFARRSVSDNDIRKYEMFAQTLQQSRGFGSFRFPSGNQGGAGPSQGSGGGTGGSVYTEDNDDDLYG
Method: as §2

MCF7 = experiment: MTT cell growth assay, MCF7; type: cell-based; settings: Homo sapiens, 48 or 72 h, read-out: Cell line inhibition of growth GI50 MCF7
Method: as §1

HTC116 WT = experiment: MTT cell growth assay, HTC116 WT; type: cell-based; settings: 48 or 72 h, read-out: Cell line inhibition of growth GI50 HTC116 WT
Method: as §1

HCT116 p53−/− = experiment: MTT cell growth assay, HCT116 p53−/−; type: cell-based; settings: Homo sapiens, HCT-116, 48 or 72 h, read-out: Cell line inhibition of growth GI50 HCT116 p53−/−
Method: as §1

[1] = tested on: HeLa cell line that stably expresses UbG76V-GFP; experiment: Accumulation of UbG76V-GFP in HeLa cells (fluorescence microscopy); type: cell-based; settings: fluorescence microscopy
Method: As a control, the same cells were treated with the proteasome inhibitor MG132. In the latter set of experiments, a HeLa cell line that stably expresses UbG76V-GFP was transfected with either wild type (WT), D1 mutant (E305Q), D2 mutant (E578Q) or E305Q, E578Q double mutant (QQ) murine 97-pcDNA4.1 plasmid (0.05 μg/100 μL) in a 96-well plate. After 23 h, the intensity of UbG76V-GFP signal was measured on a Molecular Devices ImageXpress automated fluorescence microscope. […] The direct accumulation of Ub-G76V-GFP caused by compound 2 at 25 μM is 4-fold less than that caused by MG132 at 2 μM. This is likely due to the fact that only fully folded Ub-G76V-GFP should require p97 for degradation by the proteasome.
As a second test of whether compound 8 can inhibit p97 in vivo, it was evaluated whether it can cause accumulation of the UbG76V-GFP reporter. A HeLa cell line that stably expresses UbG76V-GFP was treated with compound 8 for 1 h at 37° C., and was then evaluated by fluorescence microscopy. As a control, the same cells were treated with the proteasome inhibitor MG132. […] The level of GFP fluorescence was quantified in cells treated with compound 8 at different doses and for different periods of time (FIG. 28).

Ub-G76V-GFP/HeLa cells = experiment: Degradation of pre-accumulated Ub-G76V-GFP (cycloheximide chase after MG132 washout); type: cell-based; settings: for % K: relative to 0 μM
Method: To evaluate this possibility, an assay was developed to determine the rate of degradation of pre-accumulated Ub-G76V-GFP molecules. […] Cells were then washed with PBS three times remove the MG132. Cells were then refreshed by adding DMEM containing cycloheximide (50 μg/mL; to block production of more Ub-G76V-GFP) and test compounds (0˜10 μM) were added into cells. Eight 96-well plates were prepared and one of the plates was imaged at 25, 50, 70, 100, 110, 125, 145, or 170 min after washing with PBS three times. After washing out MG132, degradation of pre-accumulated Ub-G76V-GFP appears to follow pseudo-first order reaction. Rate constant (K; 1/min) can be determined from the slope of plotting Ln (Fold Accumulation) versus Time (min) (see FIG. 17 and FIG. 18).
Ub-G76V-GFP/HeLa cells were treated with MG132 (2 μM) for 1 h and washed with PBS three times. DMEM containing cycloheximide (50 μg/mL) and compound 8 (0-10 μM) was added into cells. Eight 96-well plates were prepared and one of the plates was imaged at 25, 50, 70, 100, 110, 125, 145, or 170 min after washing with PBS three times.

MRC5-SV40 = experiment: CellTiter-Glo growth inhibition, MRC5 cells engineered to express SV40; type: cell-based
MRC5-WT = experiment: CellTiter-Glo growth inhibition, parental MRC5 cells; type: cell-based; settings: Homo sapiens, 48 h at 37° C., read-out: Cell line inhibition of growth GI50 MRC5-WT

C=CC(=O)N(C(=O)C=C)c1ncnc2c1c(-c1ccc3ccccc3c1)nn2C(C)(C)C [Compound 7]
GI50 (MDAMB-231): 21 ± 11 µM | IC50 (T532C-Cdc48): 22 ± 11 µM | GI50 (DU145): 4.9 ± 0.6 µM | GI50 (HeLa): 1.8 ± 0.6 µM | GI50 (RL): 1.4 ± 0.7 µM | GI50 (Molt4): 1.2 ± 0.5 µM | GI50 (LNCaP): 11 ± 4 µM | GI50 (PC3): 6.2 ± 1.2 µM | GI50 (CCRF-CEM): 2.4 ± 1.1 µM | GI50 (RPMI8226): 3.4 ± 1.7 µM | IC50 (wild type murine p97): 1.3 ± 0.7 µM | GI50 (MCF7): 3.6 ± 1 µM | GI50 (HTC116 WT): 5.5 ± 1.4 µM | GI50 (HCT116 p53−/−): 13 ± 4 µM

CC(C)C[C@@H](C=O)NC(=O)[C@H](CC(C)C)NC(=O)[C@H](CC(C)C)NC(=O)OCc1ccccc1 [MG132, reference compound] (Cbz-Leu-Leu-Leu-aldehyde)
accumulation of UbG76V-GFP ([1]; 1 h at 37° C.): caused detectable accumulation of UbG76V-GFP | accumulation of UbG76V-GFP ([1]; 4 hours at 37° C.): caused accumulation of UbG76V-GFP | K, rate constant of Ub-G76V-GFP degradation (Ub-G76V-GFP/HeLa cells; 0.01 μM): 0.0336 min⁻¹ | % K (Ub-G76V-GFP/HeLa cells; 0.01 μM): 88% | K, rate constant of Ub-G76V-GFP degradation (Ub-G76V-GFP/HeLa cells; 0.04 μM): 0.0322 min⁻¹ | % K (Ub-G76V-GFP/HeLa cells; 0.04 μM): 84% | K, rate constant of Ub-G76V-GFP degradation (Ub-G76V-GFP/HeLa cells; 0.16 μM): 0.0260 min⁻¹ | % K (Ub-G76V-GFP/HeLa cells; 0.16 μM): 68% | K, rate constant of Ub-G76V-GFP degradation (Ub-G76V-GFP/HeLa cells; 0.63 μM): 0.0095 min⁻¹ | % K (Ub-G76V-GFP/HeLa cells; 0.63 μM): 25% | K, rate constant of Ub-G76V-GFP degradation (Ub-G76V-GFP/HeLa cells; 2.5 μM): 0.0005 min⁻¹ | % K (Ub-G76V-GFP/HeLa cells; 2.5 μM): 1% | K, rate constant of Ub-G76V-GFP degradation (Ub-G76V-GFP/HeLa cells; 10 μM): 0.0009 min⁻¹ | % K (Ub-G76V-GFP/HeLa cells; 10 μM): 2% | IC50 (Ub-G76V-GFP/HeLa cells; Homo sapiens, HeLa, 1 h, read-out: IC50 on the decay of Ub-G76V-GFP): 0.24 ± 0.04 µM

CC(C)C[C@H](NC(=O)[C@H](Cc1ccccc1)NC(=O)c1cnccn1)B(O)O [Velcade, reference compound]
GI50 (MRC5-SV40; Homo sapiens, MRC5, 48 h at 37° C., CellTiter-Glo, read-out: Cell line inhibition of growth GI50 MRC5-SV40): 0.1 ± 0.01 µM | greater sensitivity of SV40-transformed cells than WT cell line (MRC5-SV40; MRC5-SV40 vs MRC5-WT GI50): 2 fold | GI50 (MRC5-WT): 0.2 ± 0.07 µM

C=CC(=O)N(C(=O)C=C)c1ncnc2c1c(-c1ccccc1)nn2C(C)(C)C [Compound 3]
GI50 (MDAMB-231): 24 ± 10 µM | IC50 (T532C-Cdc48): 26 ± 6 µM | GI50 (DU145): 8.2 ± 2.4 µM | GI50 (HeLa): 5.3 ± 2.5 µM | GI50 (RL): 5 ± 2 µM | GI50 (Molt4): 2.7 ± 0.8 µM | GI50 (LNCaP): 4.6 ± 1.1 µM | GI50 (PC3): 3.3 ± 0.9 µM | GI50 (CCRF-CEM): 7.2 ± 4.3 µM | GI50 (RPMI8226): 1.2 ± 0.6 µM | IC50 (wild type murine p97): 1.1 ± 0.7 µM | GI50 (MCF7): 6.6 ± 2.2 µM | GI50 (HTC116 WT): 5.1 ± 2 µM | GI50 (HCT116 p53−/−): 4 ± 0.9 µM

CC(C)(C)n1nc(-c2ccc3ccccc3c2)c2c(N)ncnc21 [Compound 5]
GI50 (MDAMB-231): 10 ± 1.8 µM | GI50 (DU145): 3.5 ± 0.6 µM | GI50 (HeLa): 1 ± 0.3 µM | GI50 (RL): 0.7 ± 0.2 µM | GI50 (Molt4): 0.6 ± 0.2 µM | GI50 (LNCaP): 7.6 ± 1.7 µM | GI50 (PC3): 5.9 ± 0.5 µM | GI50 (CCRF-CEM): 3.9 ± 1.3 µM | GI50 (RPMI8226): 9.8 ± 1.8 µM | IC50 (wild type murine p97): > 100 µM | GI50 (MCF7): 2.3 ± 0.4 µM | GI50 (HTC116 WT): 4.3 ± 1.8 µM | GI50 (HCT116 p53−/−): 12 ± 3 µM

C=CC(=O)Nc1ncnc2c1c(-c1ccc3ccccc3c1)nn2C(C)(C)C [Compound 6]
GI50 (MDAMB-231): 5.9 ± 2.6 µM | IC50 (T532C-Cdc48): 24 ± 7 µM | GI50 (DU145): 2.3 ± 0.7 µM | GI50 (HeLa): 1.2 ± 0.2 µM | GI50 (RL): 1.3 ± 0.4 µM | GI50 (Molt4): 0.7 ± 0.1 µM | GI50 (LNCaP): 2.5 ± 0.7 µM | GI50 (PC3): 0.3 ± 0.23 µM | GI50 (CCRF-CEM): 1.3 ± 0.4 µM | GI50 (RPMI8226): 1.2 ± 0.3 µM | IC50 (wild type murine p97): 3 ± 1 µM | GI50 (MCF7): 1.9 ± 0.4 µM | GI50 (HTC116 WT): 2.8 ± 1.6 µM | GI50 (HCT116 p53−/−): 2.4 ± 1 µM

CC(C)(C)n1nc(-c2ccccc2)c2c(NC(=O)CCl)ncnc21 [Compound 4]
IC50 (T532C-Cdc48): 35 ± 8 µM | GI50 (DU145): 40 ± 10 µM | GI50 (LNCaP): 23 ± 4 µM | GI50 (PC3): 6.3 ± 0.6 µM | IC50 (wild type murine p97): 4.5 ± 3.5 µM | GI50 (HTC116 WT): 19 ± 6 µM | GI50 (HCT116 p53−/−): 20 ± 5 µM
